Assay results reported in patent US20180085340A1, “METHOD FOR TREATING MELANOMA” (TCI CO., LTD, priority 2016, published 2018).

Test system: Homo sapiens skin malignant melanoma cells (A375.S2 cell line)
Experiment: MTT assay of survival of malignant melanoma cells
Format: cell-based
Settings: for Relative survival rate (%) / Average of absorbance values (n = 4): 48 hours; for Relative survival rate (%): relative to control group, n = 4; for Average of absorbance values (n = 4): OD at 570 nm, MTT
Experimental: Homo sapiens skin malignant melanoma cells (A375.S2 cell line) were cultivated for 24 hours, and then divided into four groups (5×10^3 cells for each group). The four groups were respectively cultivated in the following medium for 48 hours: • 1. Control group: a MEM-NEAA medium contains 1 mmol of sodium pyruvate and 10% of FBS. • 2. High-dose group: a MEM-NEAA medium contains 1 mmol of sodium pyruvate, 10% of FBS and 1 mg/ml of the compound of formula (I) obtained from Example 1. • 3. Middle-dose group: a MEM-NEAA medium contains 1 mmol of sodium pyruvate, 10% of FBS and 0.5 mg/ml of the compound of formula (I) obtained from Example 1. • 4. Low-dose group: a MEM-NEAA medium contains 1 mmol of sodium pyruvate, 10% of FBS and 0.25 mg/ml of the compound of formula (I) obtained from Example 1.
Thereafter, the absorbance value (optical density, OD) at 570 nm of each group was determined by the MTT assay.
Steps of the above cultivation and MTT assay were repeated four times. The absorbance values were averaged in each group, and the result of the control group was served as a basis for calculating the relative survival rate of other groups.

For `COc1cc([C@@H]2Oc3c(OC)cc(/C=C/C(=O)NCCc4ccc(O)cc4)cc3[C@@H]2C(=O)NCCc2ccc(O)cc2)ccc1O` [compound of formula (I), N-trans-grossaminde], which “Relative survival rate (%)” value (0.25 mg/ml compound in medium) is on record?
The value was 93.67%.

What about the “Relative survival rate (%)” value (0.5 mg/ml compound in medium) of the same compound?
Its value is 22.14%.

And the “Relative survival rate (%)” value (1 mg/ml compound in medium)?
Its value is 12.24%.

What about the “Average of absorbance values (n = 4)” value (0.25 mg/ml compound) of the same compound?
Its value is 0.733.

What about the “Average of absorbance values (n = 4)” value (0.5 mg/ml compound) of the same compound?
Its value is 0.1732.

And the “Average of absorbance values (n = 4)” value (1 mg/ml compound)?
Its value is 0.09575.

And the “induction of apoptosis of malignant melanoma cells” value (conclusion drawn from MTT survival rates)?
Its value is “effectively induce apoptosis”.
